Results published in publication PMC7556481 (PLoS Pathogens, 2020).

Biological target: T1, C. elegans ser-7a / SER-7 (Caenorhabditis elegans, UniProt Q22895)
T1 construct: ser-7a cDNA expressed pan-neuronally (Psnb-1) in C. elegans ser-7(tm1325) null mutant
T1 sequence (Q22895 1-435): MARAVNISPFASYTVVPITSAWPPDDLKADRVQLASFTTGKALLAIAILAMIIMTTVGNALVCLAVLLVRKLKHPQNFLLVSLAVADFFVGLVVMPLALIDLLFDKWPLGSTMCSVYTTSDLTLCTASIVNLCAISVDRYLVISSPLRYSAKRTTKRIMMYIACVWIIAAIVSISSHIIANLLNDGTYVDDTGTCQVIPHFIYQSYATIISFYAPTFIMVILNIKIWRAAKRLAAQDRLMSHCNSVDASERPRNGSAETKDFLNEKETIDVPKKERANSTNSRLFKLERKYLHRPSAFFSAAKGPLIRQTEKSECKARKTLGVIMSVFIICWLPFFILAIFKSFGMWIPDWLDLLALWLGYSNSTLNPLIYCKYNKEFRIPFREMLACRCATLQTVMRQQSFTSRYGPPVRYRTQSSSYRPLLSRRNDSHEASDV
Assay: pharyngeal pumping of cut-head preparation, C. elegans ser-7 null expressing ser-7a
Conditions: agonist; Dent's saline pH 7.4, 0.1% BSA; response dependent on SER-7

Compound: NCCc1c[nH]c2ccc(O)cc12 [serotonin]
- EC50: 782 nM
